One test concerns the target T1, SmCA (Schistosoma mansoni, UniProt A0A4Y5UX87).
T1 construct: rSmCA N21-A298, signal peptide and C-terminal GPI-anchoring signal removed; Igk leader, C-terminal myc and His6 tags; secreted by CHO-S cells, IMAC; codon-optimized gene; native ~37 kDa GPI-linked glycoprotein
T1 sequence (A0A4Y5UX87 21-298): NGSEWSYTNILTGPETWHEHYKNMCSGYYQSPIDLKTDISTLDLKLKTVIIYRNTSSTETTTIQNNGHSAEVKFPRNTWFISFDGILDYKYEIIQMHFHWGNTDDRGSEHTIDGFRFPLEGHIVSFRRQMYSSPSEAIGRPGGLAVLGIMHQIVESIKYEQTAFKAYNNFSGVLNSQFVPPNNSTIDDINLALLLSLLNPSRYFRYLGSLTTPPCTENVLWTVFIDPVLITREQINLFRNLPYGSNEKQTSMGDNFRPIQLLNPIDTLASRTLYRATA
The experiment in a line: stopped-flow CO2 hydrase assay. The format is biochemical.
Conditions: not given
The text has this:
stopped-flow CO2 hydrase assay on SmCA
`NCCc1ccc(S(N)(=O)=O)cc1` [compound 6, 6]: the Ki amounted to 7240 ± 144 nM.

Still in this test, the particulars now being: read-out: SmCA ^b.
For the compound `Nc1ccc(S(=O)(=O)Nc2nnc(S(N)(=O)=O)s2)cc1` [compound 20, 20], the Ki amounted to 124 ± 5.9 nM.

On to `Nc1nnc(S(N)(=O)=O)s1` [compound 13, 13], for which the Ki came to 137 ± 6.5 nM.

As to `Nc1ccc(S(N)(=O)=O)cc1` [compound 2, 2], the Ki amounted to 6820 ± 150 nM.

On to `Nc1ccc(S(N)(=O)=O)cc1F` [compound 7, 7], for which the Ki stood at 3190 ± 70 nM.

In the case of `Nc1ccc(S(=O)(=O)NCc2ccc(S(N)(=O)=O)cc2)cc1` [compound 23, 23], the Ki was 524 ± 15.7 nM.

Regarding `NCc1ccc(S(N)(=O)=O)cc1` [compound 5, 5], the Ki stood at 9560 ± 191 nM.

As to `NS(=O)(=O)c1ccc(C(=O)O)cc1` [compound 18, 18], the Ki came out at 821 nM.

Consider `Nc1ccc(S(=O)(=O)NCCc2ccc(S(N)(=O)=O)cc2)cc1` [compound 24, 24], for which the Ki is 183 ± 4.5 nM.

In the case of `Nc1cc(C(F)(F)F)c(S(N)(=O)=O)cc1S(N)(=O)=O` [compound 11, 11], the Ki is 183 ± 9.1 nM.

For the compound `Nc1ccc(S(N)(=O)=O)cc1Cl` [compound 8, 8], the Ki was 737 ± 19.1 nM.

Turning to `NS(=O)(=O)c1ccc(CCO)cc1` [compound 17, 17], the Ki came to 606 ± 21.3 nM.

Regarding `NS(=O)(=O)c1ccc(CCNS(=O)(=O)c2ccc([N+](=O)[O-])cc2CO)cc1` [compound 21, 21], the Ki amounted to 163 ± 6.5 nM.

With `NS(=O)(=O)c1ccc(CO)cc1` [compound 16, 16], the Ki worked out at 1460 ± 32.1 nM.

With `Nc1ccc(S(N)(=O)=O)cc1Br` [compound 9, 9], the Ki amounted to 808 ± 16.9 nM.

In the case of `Nc1cccc(S(N)(=O)=O)c1` [compound 1, 1], the Ki came to 8420 ± 177 nM.

As for `Cc1ccc(S(N)(=O)=O)cc1` [compound 4, 4], the Ki came to 4530 ± 90 nM.

On to `Cn1nc(S(N)(=O)=O)sc1=N` [compound 14, 14], for which the Ki was 325 ± 6.5 nM.

Consider `Nc1cc(Cl)c(S(N)(=O)=O)cc1S(N)(=O)=O` [compound 12, 12], for which the Ki is 645 ± 19.9 nM.

In the case of `Nc1ccc(S(=O)(=O)Nc2ccc(S(N)(=O)=O)cc2)cc1` [compound 22, 22], the Ki was 550 ± 14.8 nM.

In the case of `Nc1nccc(Nc2ccc(S(N)(=O)=O)cc2)n1` [compound 19, 19], the Ki is 1830 ± 36.6 nM.

For the compound `NS(=O)(=O)c1ccc(O)cc1` [compound 15, 15], the Ki was 758 ± 26.5 nM.

Take `NS(=O)(=O)c1cccc(S(N)(=O)=O)c1` [compound 3, 3]: the Ki was determined as 916 ± 23.8 nM.

Consider `NS(=O)(=O)c1cc(Cl)cc(Cl)c1O` [compound 10, 10], for which the Ki worked out at 9270 ± 185 nM.
